Data set [1] is described as follows: Storage stability in aqueous solution (HPLC chromatogram, FIG. 1). The data set is classed as physicochemical. The conditions noted are these: storage at 4° C. for 13 days. Here is the method: In the left column of FIG. 1 (HPLC chromatogram), results for protransduzin A upon storage for 0-13 days at −20° C. and at 4° C. (13 days) are compared with the results for protransduzin B under the same conditions.

The subject of another data set is cells. Description: Transduction of cells with protransduzin B. Format: cell-based. The conditions noted are these: 25 μg/ml protransduzin B, cells incubated 2 days. Here is the method:
Dissolve 0.5 mg of protransduzin B in 50 μl of DMSO. Then add 450 μl of PBS to the solution, fibrils forming within 3 min. Add this stock solution (1 mg/ml) to the vectors to obtain a concentration of protransduzin B of 25 μg/ml. Vortex the solution for 1 min, then centrifuge with 5000 g for 5 min. The supernatant is discarded, and the pellet is suspended in a little PBS and added to the cells. The cells are incubated in an incubator for 2 days.

Data on 2 compounds can be found in patent US20160185820A1, “PRO[…], A GENE TRANSFER ENHANCER” (PHARIS BIOTEC GMBH, priority 2013, published 2016).

Non-standard residues stand in square brackets, D forms with d. Residues, ends and D or L forms follow the SMILES beside them. No end group written: not given here. pGlu = O=C1CC[C@@H](C(=O)O)N1

For “QCKIKQIINMWQ [protransduzin A, reference compound]”, in data set [1], the “degradation upon storage (HPLC peak height)” value is recorded as “degraded almost to one half”.
Regarding `CC[C@H](C)[C@H](NC(=O)[C@H](CCCCN)NC(=O)[C@H](CS)NC(=O)[C@@H]1CCC(=O)N1)C(=O)N[C@@H](CCCCN)C(=O)N[C@@H](CCC(N)=O)C(=O)N[C@H](C(=O)N[C@H](C(=O)N[C@@H](CC(N)=O)C(=O)N[C@@H](CCSC)C(=O)N[C@@H](Cc1c[nH]c2ccccc12)C(=O)N[C@@H](CCC(N)=O)C(=O)O)[C@@H](C)CC)[C@@H](C)CC` [protransduzin B] ([pGlu]CKIKQIINMWQ-OH), in data set [1], the “degradation upon storage (HPLC peak height)” value is on record as “hardly degraded at all”. Moreover, in the data set with cells, the cells transduced entry is recorded as “Up to 96%” and the transduction rate entry is recorded as “significantly enhanced”.
